Experimental findings from patent US20210323918A1, “COMPOSITIONS AND METHODS FOR SUPPRESSING AND/OR TREATING A GROWTH RELATED DISEASE AND/OR A CLINICAL CONDITION THEREOF” (CK Biotech Inc., priority 2018, published 2021) are described below.

Data set [1] in a line: In vivo pharmacokinetics of KY19382. On the set-up: species or system Sprague-Dawley (SD) rats. To be noted: rat. Here is the method:
In vivo pharmacokinetics of KY19382. Animal studies were approved by the Institutional Animal Care and use committee at KRIBB. Briefly, specific pathogen-free male Sprague-Dawley (SD) rats (10 weeks old, body weight 298-315 g), purchased from Koatech Co. (Kyeonggi, Republic of Korea), were given a single dose of KY19382 intravenously (iv, 1 mg/kg, n=3) or intraperitoneal (ip, 5 mg/kg, n=3). […] A 100 μl aliquot of each plasma sample was prepared, and three volumes of ice-cold acetonitrile containing carbamazepine (internal standard) were added. The mixture was centrifuged at 910 g for 10 min, and the supernatant was subjected to LC-MS/MS analysis. Pharmacokinetic parameters were calculated by standard noncompartmental analysis of plasma concentration-time profiles using Kinetica 4.4.1 (Thermo Fisher Scientific, Inc., Woburn, Mass., USA). The areas under the plasma concentration-time curves (AUC) were calculated by the linear-trapezoidal method. Systemic plasma clearance (CLP) was calculated as follows: CLP=dose/AUCinf. […] Volume of distribution at steady state (VSS) was calculated as follows: VSS=dose×AUMCinf/(AUCinf)2, where AUMCinf is the area under the first moment of the plasma concentration-time curve extrapolated to infinity Bioavailability (F) was calculated as follows: F (%)=(AUCip/AUCiv)(doseiv/doseip)×100.

For another data set, the system named is ATDC5 cells. The experiment in a line: Wnt/β-catenin signaling, proliferation and differentiation in ATDC5 chondrogenic cells. The class given is cell-based, mouse. The source says: Cell culture and reagents. The mouse chondrogenic cell line, ATDC5, was obtained from the RIKEN Cell Batik. The human juvenile costal chondrocyte cell line, C28/I2, was provided by Dr. W. U. Kim (Catholic University, Korea). HEK293-TOP cells (HEK293 cells containing the chromosomally incorporated TOPFlash gene) were provided by Dr. S. Oh (Kuk Min University, Korea). ATDCS cells were maintained in DMEM/F12 (1:1) (Gibco, Grand Island, N.Y.) supplemented with 5% FBS (Gibco). To induce hypertrophic differentiation, ATDC5 cells were incubated with insulin-transferrin-sodium selenite (ITS) supplement (Gibco) in three-dimensional alginate beads for 3 days, as previously described. See e.g., Kawasaki Y. et al. (2008), Phosphorylation of GSK-3beta by cGMP-dependent protein kinase II promotes hypertrophic differentiation of murine chondrocytes. J CLIN INVEST 118: 2506-2515. C28/I2 and HEK293-TOP cells were maintained in DMEM (Gibco) containing 10% FBS. All chemicals were dissolved in dimethyl sulfoxide (DMSO; Sigma-Aldrich, St Louis, Mo.) for the in vitro studies. For E2 (17β-estradiol; Sigma-Aldrich) treatment, cells were cultured in phenol red-free DMEM/F12 with 5% charcoal-stripped FBS for 24 hours followed by serum-free medium for 24 hours before the experiment. The PTD-DBMP was synthesized by Peptide 2.0 Inc (Chantilly, Va.).
Immunocytochemistry. ATDCS or C28/I2 cells were seeded on glass coverslip in 12-well culture plates. The cells were washed with PBS and fixed with 4% PFA at room temperature for 15 minutes. After permeabilization with 0.1% triton-X-100 for 15 minutes and blocking with 5% BSA for 1 hour, the cells were incubated with primary antibodies specific for β-catenin (1:100) or CXXC5 l (1:200) at 4° C. overnight. The cells were washed in PBS and incubated with Alexa Fluor 488 or Alexa Fluor 555 secondary antibodies (1:200) at room temperature for 1 hour. Cell nuclei were counterstained with DAPI for 10 minutes and the stained samples were examined under a LSM700 META microscope using 405-, 488-, or 543-nm excitation wavelengths. For BrdU assay, cultured cells were incubated with BrdU solution (25 μM) overnight, followed by immunocytochemical staining with antibody against BrdU (1:100).
Immunoblot analyses. […] Protein samples were separated on a 8-12% sodium dodecylsulfate polyacrylamide gel electrophoresis (SDS-PAGE) and transferred to a nitrocellulose membrane (Whatman). Immunoblotting was performed with the following primary antibodies: anti-β-catenin (Santa Cruz Biotechnology, Santa Cruz, Calif., sc-7199; 1:3,000), anti-CXXC5 (lab made;1:200) anti-Myc tag (MBL, Aichi, Japan, M192-3; 1:1,000), anti-FLAG (Sigma-Aldrich, F7425; 1:1,000), anti-p-GSK3β (S9; Cell Signaling Technology, Danvers, Mass., 9336S; 1:1,000), anti-COL2A1 (Santa Cruz Biotechnology, sc-28887; 1:500), anti-RUNX2 (Abcam, ab23981; 1:500), anti-COLIOAI (Cosmo Bio, LSL-LB-0092; 1:500), anti-MMP13 (Santa Cruz Biotechnology, sc-30073; 1:500), anti-ERK (Santa Cruz Biotechnology, sc-94; 1:3,000) and anti-α-tubulin (Cell Signaling Technology, 3873S; 1:20,000). Samples were then incubated with horseradish-peroxidase-conjugated anti-mouse (Cell Signaling Technology, 7076; 1:3,000), anti-rabbit (Bio-Rad, 1706515; 1:3,000), or anti-goat (Santa Cruz Biotechnology; sc-2020; 1:3,000) secondary antibodies. Protein bands were visualized with enhanced chemiluminescence (ECL; Amersham Bioscience, Piscataway, N.J.) using a luminescent image analyzer, LAS-3000 (Fujifilm, Tokyo, Japan). Immunoblot bands were analyzed using Multi-Gauge V3.0 software (Fujifilm). Points of interest (POIs) from immunoblot bands were marked and quantified using densitometry, and the background signals were subtracted from respective immunoblot signals. Relative densitometry values were presented as the intensity ratios of each protein to loading control protein (α-tubulin or ERK).
Immunoprecipitation. Immunoprecipitation was performed as previously described (Kim et al, 2015). […]

The target of a further data set is T1, CXXC5-DVL interaction (Homo sapiens, UniProt O14640).
T1 construct: 5 mg/ml purified DVL PDZ domain was incubated in each well
T1 sequence (O14640 251-323 limits assumed): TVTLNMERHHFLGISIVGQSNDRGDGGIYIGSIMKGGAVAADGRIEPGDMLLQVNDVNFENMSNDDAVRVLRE
The data set is described as follows: In vitro CXXC5-DVL binding assay (FITC-tagged PTD-DBMP on DVL PDZ domain). To be noted: from dose-response curve, FIG. 4B.

The mark [2] stands for this setting: male, Sprague-Dawley, plasma, IP, 5 mg/kg, mean.
The mark [3] stands for this setting: male, Sprague-Dawley, plasma, IV, 1 mg/kg, mean.
The mark [4] stands for this setting: ATDC5 cells, 0.01 or 0.1 μM, 4 hours, FIG. 12.

pIC50: −log10 of the molar value.

As usually defined, the bioavailability is the share of a dose that reaches the circulation, judged against a reference dose that is usually intravenous. A high value points to much systemic uptake. As a reminder, the AUC(0-t) is exposure summed from dosing to a finite time, without extrapolation to infinity. For orientation: Cmax means the peak of the concentration-time curve. In general, Tmax refers to the time at which the peak concentration occurs. In general, half-life refers to the time needed for the level to fall by half in the phase considered. Read a low half-life as fast loss. The clearance is the volume of plasma or blood freed of the substance per unit of time. A low value points to inefficient removal. As a reminder, the pIC50 is the negative decadic logarithm of the IC50, by convention in mol/L. A lower pIC50 goes with a large IC50. Take `CO/N=C1/C(=C2/C(=O)Nc3cc(Cl)c(Cl)cc32)Nc2ccccc21` [KY19382, 5,6-dichloroindirubin-3′-methoxime]: the “CL” value in data set [1] (IP, 5 mg/kg, mean) was found to be 7.83 mL/min/kg. Also, the bioavailability in data set [1] (male, Sprague-Dawley, plasma, intraperitoneal, IP, 5 mg/kg vs IV, 1 mg/kg) was determined as 16.7%. In addition, in data set [1] (setting [2]), the AUC(0-t) came to 6560 ng·h/mL, the concentration peaked (Cmax) at 463 ng/mL, the Tmax stood at 1 h and the half-life is 16.2 h. In addition, in data set [1] (setting [3]), the AUC(0-t) was 7830 ng·h/mL, the clearance is 2 mL/min/kg and the half-life was 3.33 h. Moreover, the Vd in data set [1] (male, Sprague-Dawley, plasma, IV, 1 mg/kg, mean, read-out: Vss) was determined as 0.33 L/kg. Besides, the “number of BrdU-positive ATDC5 cells” value in the data set on ATDC5 cells (0.01 or 0.1 μM, 48 hours, FIG. 11A) is on record as “enhanced number”. Also, the “CXXC5-DVL interaction, immunoprecipitation” value with ATDC5 cells (ATDC5 cells, 0.1 μM, 4 hours, FIG. 4F) was “interruption of the CXXC5-DVL interaction”. The “nuclear translocation of β-catenin” value in the data set with ATDC5 cells (ATDC5 cells, 0.1 μM, 48 hours, FIG. 4G) is recorded as “elevated”. The “mRNA levels of chondrogenic markers” value in the data set on ATDC5 cells (ATDC5 cells, 0.1 μM, 3 days, alginate beads, FIG. 11B) is “upregulated”. Also, in the data set on ATDC5 cells (setting [4]), the “expression levels of Wnt/β-catenin target genes (Fosl1, Wisp1, Axin2)” value is on record as “markedly increased” and the “off-target effects: 19 other genes that respond to other pathways, mRNA” value is listed as “not significantly altered”. The “β-catenin level with inactivation of GSK3β, immunoblot” value in the data set on ATDC5 cells (ATDC5 cells, 24 hours, FIG. 4E) is listed as “increment of β-catenin”. For the same compound, the pIC50 on CXXC5-DVL interaction is 7.72.
